{
  "source": "patent US12384758B2",
  "about": "“Crystalline form of LNP023” (Novartis AG, priority 2020, dated 2025)",
  "experiment": "Dynamic vapor sorption (DVS) isotherms, 0 to 95% relative humidity",
  "assay_type": "physicochemical",
  "conditions": "25±1.0° C.",
  "method": "Dynamic vapor sorption isotherms were recorded with a DVS Advantage instrument. The measurement cycle was started at ambient relative humidity (RH) of 40%. RH was then decreased to 0% in 10% steps. […] 5% steps. Finally, RH was increased to ambient relative humidity of 40% in 10% steps. The time per step was set to a minimum of 3 hours and a maximum of 6 hours. If an equilibrium condition with a constant mass change of 0.002%/min for a minimum of 5 min was reached before the maximum time for all examined samples the sequential humidity step was applied before the maximum time of 6 hours. If no equilibrium was achieved the consecutive humidity step was applied after the maximum time of 6 hours. The temperature was 25±1.0° C.\nTherefore, Form HB of LNP023 hydrochloride described herein can be assigned as being non-hygroscopic.",
  "data": [
    {"smiles": "CCO[C@H]1CCN(Cc2c(OC)cc(C)c3[nH]ccc23)[C@H](c2ccc(C(=O)O)cc2)C1.Cl", "note": "[Form HB of LNP023 hydrochloride, 4-((2S,4S)-(4-ethoxy-1-((5-methoxy-7-methyl-1H-indol-4-yl)methyl)piperidin-2-yl))benzoic acid hydrochloride]", "values": [
      {"measurement": "hysteresis between the sorption and desorption curve", "setting": "DVS sorption 0% to 95% RH, desorption 95 to 0% RH", "value": "no significant hysteresis"},
      {"measurement": "mass difference between 40 and 95% RH (DVS equilibrium mass change)", "setting": "DVS, reference weight at 0% RH", "value": "less than 0.2 weight %"},
      {"measurement": "PXRD after the DVS experiment (physical stability of the form)", "setting": "after DVS cycle 0 to 95% RH", "value": "remains unchanged"},
      {"measurement": "hygroscopicity assignment", "setting": "from DVS, non-hygroscopic defined in b47 as mass increase of less than 0.2% at 80% RH at 25° C.", "value": "non-hygroscopic"}
    ]}
  ]
}
